Marks after values point to notes of the source that are not given here.
Tests used:
[1] = test system: heat shock protein Hspa8 and Hspa1a; assay: Example 3 in vivo pharmacodynamic study via oral dosing: RT-qPCR of brain; conditions: mouse brain, 25 mg/kg oral once daily 4 days; for Relative expression of Hspa1a normalized with Group 1 / Relative expression of Hspa8 normalized with Group 1: normalized to Actb
Procedure: Wildtype mice were dosed orally at 25 mg/kg (6aS)-6-methyl-5,6,6a,7-tetrahydro-4H-dibenzo[de,g]quinoline-10,11-diol for 4 days once daily.
A total of 36 mice were randomly divided into twelve groups. Each group had 3 mice. After oral administration of (6aS)-6-methyl-5,6,6a,7-tetrahydro-4H-dibenzo[de,g]quinoline-10,11-diol once a day for 4 consecutive days, brains of mice in each group were sampled individually at the time point of 0, 5, 15, 30 min, 1, 2, 3, 4, 8, 12, 24 and 48 hour post the last oral dose. A quarter of whole brain from each mouse in every time group underwent a real-time quantitative polymerase chain reaction (RT-qPCR) analysis. Before RNA extraction, brain tissues were frozen immediately in liquid nitrogen, and were transferred to −80° C. until further use.
Total RNA from 36 frozen brain samples were extracted using Trizol reagent (Invitrogen, Carlsbad, Calif., USA, 15596018) according to the manufacturer's instructions. After extraction, the integrity of total RNA was be checked by 1% agarose gel staining with ethidium bromide as well as by nanodrop (Thermo Fisher, USA). Then, 2 μg of total RNA was used for reverse transcription by M-MLV Reverse Transcriptase (Invitrogen, 28025-013) with gDNA removal (NEB, M0303S). qRT-PCR analysis was performed using LightCycler® 480 Probe Master (4887301001, Roche, Basel, Switzerland) and the Roche LightCycler480 (Roche). The data from triplicate experiments were subjected to statistical analysis and the target genes were normalized against the levels of actin beta (Actb) mRNA. The primers are listed as follows: […]

[2] = test system: Nrf2 and HSF1 target genes; assay: Example 4 target engagement qPCR of cortex tissue; type: in vivo, mouse; conditions: normalized to Gapdh
Procedure: This in vivo pharmacology study was designed to test the efficacy of (6aS)-6-methyl-5,6,6a,7-tetrahydro-4H-dibenzo[de,g]quinoline-10,11-diol on the progression of motor and cognitive decline in the TDP-43^Q331K mouse model. In addition, tissue was collected at the end of the experiment for target engagement (gene expression) analysis of Nrf2 and HSF1 target genes.
Following genotyping, transgenic females were block randomized into three different dosing groups: vehicle once daily, 2.5 mg/kg (6aS)-6-methyl-5,6,6a,7-tetrahydro-4H-dibenzo[de,g]quinoline-10,11-diol twice daily and 5 mg/kg (6aS)-6-methyl-5,6,6a,7-tetrahydro-4H-dibenzo[de,g]quinoline-10,11-diol once daily. The doses were selected based on results of previous internal studies. Animals were weighed daily before dosing and dosed subcutaneously at 10 ml/kg with a solution of 0.5 mg/ml (6aS)-6-methyl-5,6,6a,7-tetrahydro-4H-dibenzo[de,g]quinoline-10,11-diol for the 5 mg/kg dose and 0.25 mg/ml for the 2.5 mg/kg dose. Where animals were dosed twice a day, the doses were at least 6 hours apart and the dosing solution was freshly made for the second dose of the day.
The study was designed with two main cohorts of mice. One cohort was dosed from 25 days of age until 6 months of age and mice had behavioral testing throughout the study and consisted of 14 mice per group. The other satellite cohort was dosed from 25 days of age until 3 months of age, with no behavioral testing and consisted of 6 mice per group for target engagement and histological assessment. Behavioral tests that were carried out during the experiment were: accelerated rotarod test, gait analysis, and electrophysiology.
Tissue was collected at 24 hours after the final morning dose. All animals were overdosed with an intraperitoneal injection of pentibarital (JML, M042) at the time of tissue collection (2.5 ml/kg). In the 6 month cohort (n=14), 7 animals per group were perfused to fix tissue for histology. For these animals, once animals had lost pedal reflex, the chest cavity was opened and 10 ml of PBS was perfused via the heart, followed by 10 ml of 4% PFA. Brain and spinal cord were extracted and stored in 4% PFA overnight before being changed to PBS. The lumbar section of the spinal cord was dissected and embedded. For the remaining 7 animals per group, once the animals had lost pedal reflex, blood was extracted via a cardiac puncture technique. The blood was collected and stored in 1 ml of RNALater (ThermoFisher). Spinal cords were removed and the upper section of spinal cord was snap frozen in liquid nitrogen for protein analysis, while the lower section was stored in RNALater and stored at −20° C. Cortex was removed and dissected into four parts, the front left segment was stored in RNALater, while the three other sections were snap frozen in liquid nitrogen.
For the 3 month cohort, tissue was collected in a similar way to the snap frozen tissue for 6 month cohort, however where tissue was stored in RNALater for the 6 month cohort, it was processed for RNA extraction immediately in the 3 month cohort.
RNA was extracted from lower spinal cord and cortex using the RNeasy lipid tissue mini kit (Qiagen, 74804) following the manufactures protocol. Briefly tissue was homogenized in a small volume (150 μl) of QIAzol using a hand-held homogenizer in a fume hood. Once homogenized, the total volume of QIAzol was increased to 1 ml. Samples were incubated at room temperature for 5 minutes after which 200 μl of chloroform (Honeywell) was added and samples were shaken vigorously for 15 seconds. Mixed samples were then incubated at room temperature for 3 minutes then centrifuged at 12,000g for 15 minutes at 4° C. in a bench top microcentrifuge.
The upper aqueous phase of the sample was transferred to a fresh labelled tube and 1 volume of 70% ethanol was added. Samples were vortexed and 700 μl of sample was transferred to RNeasy mini spin columns attached to 2 ml collection tubes. […]

[3] = Group 3 (15 min) post last dose
[4] = Group 4 (30 min) post last dose
[5] = Group 10 (12 Hr) post last dose
[6] = Group 11 (24 Hr) post last dose
[7] = Group 12 (48 Hr) post last dose
[8] = 3 months, 2.5 mg/kg dosing group

CN1CCc2cccc3c2[C@@H]1Cc1ccc(O)c(O)c1-3 [(6aS)-6-methyl-5,6,6a,7-tetrahydro-4H-dibenzo[de,g]quinoline-10,11-diol]
Relative expression of Hspa1a normalized with Group 1 ([1]; Group 1 (0 min) post last dose): 1.00
Relative expression of Hspa8 normalized with Group 1 ([1]; Group 1 (0 min) post last dose): 1.00
Relative expression of Hspa1a normalized with Group 1 ([1]; Group 2 (5 min) post last dose): 0.96
Relative expression of Hspa8 normalized with Group 1 ([1]; Group 2 (5 min) post last dose): 0.85
Relative expression of Hspa1a normalized with Group 1 [1, 3]: 1.05
Relative expression of Hspa8 normalized with Group 1 [1, 3]: 0.89
Relative expression of Hspa1a normalized with Group 1 [1, 4]: 1.06
Relative expression of Hspa8 normalized with Group 1 [1, 4]: 0.91
Relative expression of Hspa1a normalized with Group 1 ([1]; Group 5 (1 Hr) post last dose): 0.90
Relative expression of Hspa8 normalized with Group 1 ([1]; Group 5 (1 Hr) post last dose): 0.92
Relative expression of Hspa1a normalized with Group 1 ([1]; Group 6 (2 Hr) post last dose): 1.02
Relative expression of Hspa8 normalized with Group 1 ([1]; Group 6 (2 Hr) post last dose): 0.96
Relative expression of Hspa1a normalized with Group 1 ([1]; Group 7 (3 Hr) post last dose): 1.10
Relative expression of Hspa8 normalized with Group 1 ([1]; Group 7 (3 Hr) post last dose): 0.96
Relative expression of Hspa1a normalized with Group 1 ([1]; Group 8 (4 Hr) post last dose): 1.09
Relative expression of Hspa8 normalized with Group 1 ([1]; Group 8 (4 Hr) post last dose): 1.01
Relative expression of Hspa1a normalized with Group 1 ([1]; Group 9 (8 Hr) post last dose): 2.25*
Relative expression of Hspa8 normalized with Group 1 ([1]; Group 9 (8 Hr) post last dose): 1.11
Relative expression of Hspa1a normalized with Group 1 [1, 5]: 1.33*
Relative expression of Hspa8 normalized with Group 1 [1, 5]: 1.17**
Relative expression of Hspa1a normalized with Group 1 [1, 6]: 1.04
Relative expression of Hspa8 normalized with Group 1 [1, 6]: 1.14**
Relative expression of Hspa1a normalized with Group 1 [1, 7]: 1.04
Relative expression of Hspa8 normalized with Group 1 [1, 7]: 0.99
Hspa1a mRNA level compared with group 1 (in words) ([1]; group 9 and 10 (8 Hr, 12 Hr)): significant increase
mRNA expression levels of Hspa8 compared with group 1 (in words) ([1]; group 10 and 11 (12 Hr, 24 Hr)): slight increase
group in which Hspa1a mRNA level reached a peak ([1]; group 9 = 8 Hr post last dose): group 9
GSR relative mRNA level compared to vehicle [2, 8]: upregulation
Nqo1 relative mRNA level compared to vehicle [2, 8]: upregulation
Osgin1 relative mRNA level compared to vehicle [2, 8]: upregulation
GSR relative mRNA level compared to vehicle ([2]; 3 months, 5 mg/kg dosing group): significant upregulation
Hspa1a relative mRNA level compared to vehicle ([2]; 3 months, 5 mg/kg dosing group): significant upregulation
Nqo1 relative mRNA level compared to vehicle ([2]; 3 months, 5 mg/kg dosing group): significant upregulation
Sqstm1 relative mRNA level compared to vehicle ([2]; 3 months, 5 mg/kg dosing group): significant upregulation
Hspa1a relative mRNA level compared to vehicle ([2]; 6 months, 2.5 mg/kg twice daily): significant upregulation
Hspa1a relative mRNA level compared to vehicle ([2]; 6 months, 5 mg/kg daily): significant upregulation
